This note sets out measurements from US9877957B2, “Tetrahydroisoquinoline derivatives useful as inhibitors of diacylglyceride O-acyltransferase 2” (Merck Sharp & Dohme Corp., priority 2014, dated 2018).

Each structure is given as a SMILES string.

Sequence of hDGAT2 (Q96PD7 whole entry): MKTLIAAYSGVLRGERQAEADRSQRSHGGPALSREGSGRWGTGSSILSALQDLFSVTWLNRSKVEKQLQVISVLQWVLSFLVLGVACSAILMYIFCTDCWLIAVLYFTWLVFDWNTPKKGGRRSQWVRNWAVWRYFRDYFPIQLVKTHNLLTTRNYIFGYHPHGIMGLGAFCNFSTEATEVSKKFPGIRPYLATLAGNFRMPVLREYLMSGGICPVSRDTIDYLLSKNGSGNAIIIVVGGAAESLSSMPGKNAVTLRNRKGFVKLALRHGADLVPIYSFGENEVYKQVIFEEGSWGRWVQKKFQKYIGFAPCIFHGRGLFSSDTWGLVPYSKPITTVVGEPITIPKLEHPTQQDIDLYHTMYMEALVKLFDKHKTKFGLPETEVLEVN

This test addresses hDGAT2 (Homo sapiens (Human), UniProt Q96PD7). The test is described as follows: DGAT2 Enzymatic Activity Assay (triolein formation, LC/MS/MS). The class given is biochemical. The conditions noted are these: Sf-9 membrane prep expressing hDGAT2; 25 μM diolein, 10 μM oleoyl-CoA; room temperature; read-out: IC50 values for inhibition of DGAT2. Here is the method:
In Vitro DGAT2 ASSAYS and Determination of IC50 Values for DGAT2 Inhibitors
Insect Cell Expression and Membrane Preparation
Sf-9 insect cells were maintained in Grace's insect cell culture medium with 10% heated-inactivated fetal bovine serum, 1% Pluronic F-68 and 0.14 μg/ml Kanamycine sulfate in Erlenmeyer flasks at 28° C. in a shaker incubator. After infection with untagged hDGAT2 baculovirus at multiplicity of infection (MOI) 0.1 for 48 hours, cells were harvested. Cell pellets were suspended in buffer containing 10 mM Tris-HCl (pH 7.5), 1 mM EDTA (pH 8.0), 250 mM sucrose and Complete Protease Inhibitor Cocktail (Roche Diagnostics Corp., Indianapolis, Ill.), and sonicated on ice. Membrane fractions were isolated by ultracentrifugation (100,000× g pellet), resuspended in the same buffer, and frozen (−80° C.) for later use. The protein concentration was determined with the BCA Protein Assay kit (Pierce Biotechnology Inc., Rockford, Ill.). Expression of protein levels was analyzed by immunoblotting with goat polyclonal DGAT2 antibody C-15 and donkey anti-goat IgG HRP (Santa Cruz Biotechnology, Inc., Santa Cruz, Calif.) followed by detection with ECL reagent (GE Healthcare, Piscataway, N.J.).
LC/MS/MS analyses were performed using Thermal Fisher's LX4-TSQ Vantage system. This system consists of an Agilent binary high-performance liquid chromatography (HPLC) pumps and a TSQ Vantage triple quadrupole MS/MS instrument. For each sample, 2 μL samples from the top organic layer of in-plate liquid-liquid extraction were injected onto a Thermo Betabasic C4 column (2.1 mm×20 mm, 5 μm particle size). The samples were then eluted using the following conditions; mobile phase: methanol/water with 0.1% ammonium format=92/8 (v/v), flow rate: 1 mL/min, temperature: 25° C. Data was acquired in positive mode using a heated electrospray ionization (HESI) interface. The operational parameters for the TSQ Vantage MS/MS instrument were a spray voltage of 3000 V, capillary temperature of 280° C., vaporizer temperature 400° C., shealth gas 60 arbitrary unit, Aux gas 40 arbitrary units, S-lens 113 and collision gas 0.16 Pascals. […] (SRM) chromatograms of triolein (Q1: 902.9>Q3:602.3) and internal standard (Q1: 902.9>Q3:602.3) were collected for 40 sec. The peak area was integrated by Xcalibur Quan software. The ratio between the triolein generated in the reaction and spiked in internal standard were used to generate percentage inhibition and IC50 values. Compound percentage inhibition was calculated by the following formula: Inhibition %=1−[(compound response−low control)/(high control−low control)]×100%. Potent compounds were titrated and IC50 were calculated by 4 parameter sigmoidal curve fitting formula.
DGAT2 Enzymatic Activity Assay
DGAT2 activity was determined by measuring the amount of enzymatic product triolein (1,2,3-Tri(cis-9-octadecenoyl)glycerol) using the membrane prep mentioned above. The assay was carried out in deep well 384 plates in a final volume of 40 μL at room temperature. The assay mixture contained the following: assay buffer (100 mM Tris·Cl, pH 7.0, 20 mM MgCl2, 5% ethanol), 25 μM of diolein, 10 μM of oleoyl-CoA and 10 ng/μL of DGAT2 membrane.
What is called IC50 is the point on the concentration scale where inhibition reaches its midpoint. In the case of `CC(C)(C)NC(=O)N1CCc2c(-c3cccc(C(F)(F)F)c3)ccc(C(=O)N[C@@H](CO)c3ccc(C(F)(F)F)nc3)c2C1` (racemic) [Example 21, (R/S)-N^2-(tert-butyl)-N^8-(2-hydroxy-1-(6-(trifluoromethyl)pyridin-3-yl)ethyl)-5-(3-(trifluoromethyl)phenyl)-3,4-dihydroisoquinoline-2,8(1H)-dicarboxamide], the half-maximal inhibitory concentration (IC50) was determined as 214 nM.
For `CC(C)(C)NC(=O)N1CCc2c(-c3cccc(C(F)(F)F)c3)ccc(C(=O)N[C@H]3C[C@@H]3c3ccccc3)c2C1` (relative stereo) [Example 65, N^2-(tert-butyl)-N^8-((trans)-2-phenylcyclopropyl)-5-(3-(trifluoromethyl)phenyl)-3,4-dihydroisoquinoline-2,8(1H)-dicarboxamide] the value was 1020 nM.
Consider `CC(C)(C)NC(=O)N1CCc2c(-c3cccc(C(F)(F)F)c3)ccc(C(=O)NC[C@H]3C[C@@H]3c3ccccc3)c2C1` (relative stereo) [Example 69, N^2-(tert-butyl)-N^8-(((trans)-2-phenylcyclopropyl)methyl)-5-(3-(trifluoromethyl)phenyl)-3,4-dihydroisoquinoline-2,8(1H)-dicarboxamide], for which the IC50 stood at 528 nM.
For `COC(=O)c1cccc(-c2ccc(CNC(=O)C3CCN(c4ccc(C(F)(F)F)cc4)CC3)c3c2CCN(C(=O)NC(C)(C)C)C3)c1` [Example 1, methyl 3-(2-(tert-butylcarbamoyl)-8-((1-(4-(trifluoromethyl)phenyl)piperidine-4-carboxamido)methyl)-1,2,3,4-tetrahydroisoquinolin-5-yl)benzoate] the value was 1.75 nM; for `CC(C)(C)NC(=O)N1CCc2c(-c3cccc(OC(F)(F)F)c3)ccc(CNC(=O)c3cc(C(F)(F)F)n[nH]3)c2C1` [Example 2, N-(tert-butyl)-5-(3-(trifluoromethoxy)phenyl)-8-((3-(trifluoromethyl)-1H-pyrazole-5-carboxamido)methyl)-3,4-dihydroisoquinoline-2(1H)-carboxamide], 104 nM.
Take `COC(=O)c1cccc(-c2ccc(CNC(=O)c3cc(C(C)(C)C)nn3C)c3c2CCN(C(=O)NC(C)(C)C)C3)c1` [Example 3, methyl 3-(8-((3-(tert-butyl)-1-methyl-1H-pyrazole-5-carboxamido)methyl)-2-(tert-butylcarbamoyl)-1,2,3,4-tetrahydroisoquinolin-5-yl)benzoate]: the IC50 turned out to be 17 nM.
`COc1cccc(-c2ccc(CNC(=O)c3cc(C(F)(F)F)n[nH]3)c3c2CCN(C(=O)NC(C)(C)C)C3)c1` [Example 4, N-(tert-butyl)-5-(3-methoxyphenyl)-8-((3-(trifluoromethyl)-1H-pyrazole-5-carboxamido)methyl)-3,4-dihydroisoquinoline-2(1H)-carboxamide]: the IC50 amounted to 41.4 nM.
For `COc1cccc(-c2ccc(CNC(=O)c3nccc4ccccc34)c3c2CCN(C(=O)NC(C)(C)C)C3)c1` [Example 5, N-((2-(tert-butylcarbamoyl)-5-(3-methoxyphenyl)-1,2,3,4-tetrahydroisoquinolin-8-yl)methyl)isoquinoline-1-carboxamide] the value was 135 nM; for `CC(C)(C)NC(=O)N1CCc2c(-c3cccc(C(F)(F)F)c3)ccc(C(=O)NCCc3nc4cc(Cl)ccc4[nH]3)c2C1` [Example 6, N^2-(tert-butyl)-N^8-(2-(5-chloro-1H-benzo[d]imidazol-2-yl)ethyl)-5-(3-(trifluoromethyl)phenyl)-3,4-dihydroisoquinoline-2,8(1H)-dicarboxamide], 11.9 nM.
As to `CC(C)(C)NC(=O)N1CCc2c(-c3cccc(C(F)(F)F)c3)ccc(C(=O)NCCc3nc4cc(Cl)c(Cl)cc4[nH]3)c2C1` [Example 7, N^2-(tert-butyl)-N^8-(2-(5,6-dichloro-1H-benzo[d]imidazol-2-yl)ethyl)-5-(3-(trifluoromethyl)phenyl)-3,4-dihydroisoquinoline-2,8(1H)-dicarboxamide], the IC50 is 15.9 nM.
With `CC(C)(C)NC(=O)N1CCc2c(-c3cccc(C(F)(F)F)c3)ccc(C(=O)NCCc3nc4ccc(F)cc4[nH]3)c2C1` [Example 8, N^2-(tert-butyl)-N^8-(2-(5-fluoro-1H-benzo[d]imidazol-2-yl)ethyl)-5-(3-(trifluoromethyl)phenyl)-3,4-dihydroisoquinoline-2,8(1H)-dicarboxamide], the IC50 came out at 32.9 nM.
For `CC(C)(C)NC(=O)N1CCc2c(-c3cccc(C(F)(F)F)c3)ccc(C(=O)NCCc3nc4ccccc4[nH]3)c2C1` [Example 9, N^8-(2-(1H-benzo[d]imidazol-2-yl)ethyl)-N^2-(tert-butyl)-5-(3-(trifluoromethyl)phenyl)-3,4-dihydroisoquinoline-2,8(1H)-dicarboxamide] the value was 51.1 nM.
To `CC(C)(C)NC(=O)N1CCc2c(-c3cccc(C(F)(F)F)c3)ccc(C(=O)NCc3cncc4ccccc34)c2C1` [Example 10, N^2-(tert-butyl)-N^8-(isoquinolin-4-ylmethyl)-5-(3-(trifluoromethyl)phenyl)-3,4-dihydroisoquinoline-2,8(1H)-dicarboxamide] belongs 66.9 nM.
Take `CC(C)(C)NC(=O)N1CCc2c(-c3cccc(C(F)(F)F)c3)ccc(C(=O)NCc3cccc4cccnc34)c2C1` [Example 11]: the IC50 is 67.6 nM.
To `CC(C)(C)NC(=O)N1CCc2c(-c3cccc(C(F)(F)F)c3)ccc(C(=O)NCc3cccc4cnccc34)c2C1` [Example 12, N^2-(tert-butyl)-N^8-(isoquinolin-5-ylmethyl)-5-(3-(trifluoromethyl)phenyl)-3,4-dihydroisoquinoline-2,8(1H)-dicarboxamide] belongs 68.6 nM; to `COc1ccc2nc(CCNC(=O)c3ccc(-c4cccc(OC(F)(F)F)c4)c4c3CN(C(=O)NC(C)(C)C)CC4)[nH]c2c1` [Example 13, N^2-(tert-butyl)-N^8-(2-(6-methoxy-1H-benzo[d]imidazol-2-yl)ethyl)-5-(3-(trifluoromethoxy)phenyl)-3,4-dihydroisoquinoline-2,8(1H)-dicarboxamide], 68.9 nM.
For `Cc1ccc2[nH]c(CCNC(=O)c3ccc(-c4cccc(C(F)(F)F)c4)c4c3CN(C(=O)NC(C)(C)C)CC4)nc2c1` [Example 14, N^2-(tert-butyl)-N^8-(2-(5-methyl-1H-benzo[d]imidazol-2-yl)ethyl)-5-(3-(trifluoromethyl)phenyl)-3,4-dihydroisoquinoline-2,8(1H)-dicarboxamide] the value was 103 nM.
`Cc1nc2ccccn2c1CNC(=O)c1ccc(-c2cccc(C(F)(F)F)c2)c2c1CN(C(=O)NC(C)(C)C)CC2` [Example 15, N^2-(tert-butyl)-N^8-((2-methylimidazo[1,2-a]pyridin-3-yl)methyl)-5-(3-(trifluoromethyl)phenyl)-3,4-dihydroisoquinoline-2,8(1H)-dicarboxamide]: the IC50 is 120 nM.
To `CC(C)(C)NC(=O)N1CCc2c(-c3cccc(C(F)(F)F)c3)ccc(C(=O)NCc3cccc4ncccc34)c2C1` [Example 16, N^2-(tert-butyl)-N^8-(quinolin-5-ylmethyl)-5-(3-(trifluoromethyl)phenyl)-3,4-dihydroisoquinoline-2,8(1H)-dicarboxamide] belongs 126 nM; to `CC(C)(C)NC(=O)N1CCc2c(-c3cccc(C(F)(F)F)c3)ccc(C(=O)NCc3ccc4nonc4c3)c2C1` [Example 17, N^8-(benzo[c][1,2,5]oxadiazol-5-ylmethyl)-N^2-(tert-butyl)-5-(3-(trifluoromethyl)phenyl)-3,4-dihydroisoquinoline-2,8(1H)-dicarboxamide], 132 nM; to `CC(C)(C)NC(=O)N1CCc2c(-c3cccc(C(F)(F)F)c3)ccc(C(=O)NCCc3cn4ccsc4n3)c2C1` [Example 18, N^2-(tert-butyl)-N^8-(2-(imidazo[2,1-b]thiazol-6-yl)ethyl)-5-(3-(trifluoromethyl)phenyl)-3,4-dihydroisoquinoline-2,8(1H)-dicarboxamide], 133 nM.
